Reference: patent US9603364B2 (Dow AgroSciences LLC, priority 2013, dated 2017)

Assays:
Assay in all cases: General post-emergent herbicidal activity, foliar application
Type in all cases: in vivo
[1] = test system: Amaranthus retroflexus L. (pigweed, redroot); conditions: for pest or weed control at 140 g/ha: 140 g ai/ha; for GR80 Value AMARE: calculated by probit analysis, dose for 80% visual injury, may be extrapolated
Procedure: (§1) A weighed amount, determined by the highest rate to be tested, of each test compound was placed in a 25 mL glass vial and was dissolved in 4 mL of a 97:3 v/v (volume/volume) mixture of acetone and dimethyl sulfoxide to obtain concentrated stock solutions which will be referred to as General Purpose Solvent. […] The concentrated stock solutions obtained were diluted with 20 mL of an aqueous mixture containing water, General Purpose Solvent, isopropyl alcohol, Atplus 411F crop oil concentrate, and Triton X-155 surfactant in a 46:42:12:1.0:0.02 v/v ratio to obtain spray solutions containing the highest application rates. Additional application rates were obtained by serial dilution of 12 mL of the high rate solution into a solution containing 2 mL of 97:3 v/v (volume/volume) mixture of acetone and dimethyl sulfoxide and 10 mL of an aqueous mixture containing water, General Purpose Solvent, isopropyl alcohol, Atplus 411F crop oil concentrate, and Triton X-155 surfactant in a 46:42:12:1.0:0.02 v/v ratio to obtain 1/2×, 1/4×, 1/8× and 1/16× rates of the high rate. […] Control plants were sprayed in the same manner with the solvent blank.
(§2) The treated plants and control plants were placed in a greenhouse as described above and watered by sub-irrigation to prevent wash-off of the test compounds. After 14 days, the condition of the test plants as compared with that of the untreated plants was determined visually and scored on a scale of 0 to 100 percent where 0 corresponds to no injury and 100 corresponds to complete kill.
(§3) By applying the well-accepted probit analysis as described by J. Berkson in […], 48, 565 (1953) and by D. Finney in “Probit Analysis” Cambridge University Press (1952), the dose response data gathered as expressed above can be used to calculate GR20, GR50 and GR80 values, which are defined as growth reduction factors that correspond to the effective dose of herbicide required to kill or control 20 percent, 50 percent or 80 percent, respectively, of a target plant. Data not expressed in Table A may have been used to calculate some of the GR80 values in Table B. In some cases, the GR80 values may be extrapolations calculated based on the slope of the dose response curve for individual compounds listed in Table B.

[2] = test system: Chenopodium album L. (lambsquarters, common); conditions: for pest or weed control at 140 g/ha: 140 g ai/ha; for GR80 Value CHEAL: calculated by probit analysis, dose for 80% visual injury, may be extrapolated
Procedure: as §1, §2, §3

[3] = test system: Echinochloa crus-galli (L.) Beauv. (barnyardgrass); conditions: for pest or weed control at 140 g/ha: 140 g ai/ha; for GR80 Value ECHCG: calculated by probit analysis, dose for 80% visual injury, may be extrapolated
Procedure: as §1, §2, §3

[4] = test system: Euphorbia heterophylla L. (poinsettia, wild); conditions: for pest or weed control at 140 g/ha: 140 g ai/ha; for GR80 Value EPHHL: calculated by probit analysis, dose for 80% visual injury, may be extrapolated
Procedure: as §1, §2, §3

[5] = test system: Helianthus annuus L. (sunflower, common); conditions: for pest or weed control at 140 g/ha: 140 g ai/ha; for GR80 Value HELAN: calculated by probit analysis, dose for 80% visual injury, may be extrapolated
Procedure: as §1, §2, §3

[6] = test system: Viola tricolor L. (pansy); conditions: for pest or weed control at 140 g/ha: 140 g ai/ha; for GR80 Value VIOTR: calculated by probit analysis, dose for 80% visual injury, may be extrapolated
Procedure: as §1, §2, §3

Oryza sativa L. (rice) = conditions: Oryza sativa, 336 h, scored after 14 days, read-out: % Visual Growth Reduction ORYSA; for plant injury at 140 g/ha: 140 g ai/ha
Procedure: as §1, §2

Zea mays L. (corn) = conditions: 336 h, scored after 14 days, read-out: % Visual Growth Reduction ZEAMX; for plant injury at 140 g/ha: 140 g ai/ha
Procedure: as §1, §2

[7] = Amaranthus retroflexus, 336 h, foliar post-emergent, scored after 14 days, read-out: % Visual Growth Reduction AMARE
[8] = Chenopodium album, 336 h, foliar post-emergent, scored after 14 days, read-out: % Visual Growth Reduction CHEAL
[9] = Echinochloa crus-galli, 336 h, foliar post-emergent, scored after 14 days, read-out: % Visual Growth Reduction ECHCG
[10] = Euphorbia heterophylla, 336 h, foliar post-emergent, scored after 14 days, read-out: % Visual Growth Reduction EPHHL
[11] = Helianthus annuus, 336 h, foliar post-emergent, scored after 14 days, read-out: % Visual Growth Reduction HELAN
[12] = Viola tricolor, 336 h, foliar post-emergent, scored after 14 days, read-out: % Visual Growth Reduction VIOTR

| Structure (SMILES) | pest or weed control at 140 g/ha [1, 7] [%] | GR80 Value AMARE [1] [g ai/ha] | pest or weed control at 140 g/ha [2, 8] [%] | GR80 Value CHEAL [2] [g ai/ha] | pest or weed control at 140 g/ha [3, 9] [%] | GR80 Value ECHCG [3] [g ai/ha] | pest or weed control at 140 g/ha [4, 10] [%] | GR80 Value EPHHL [4] [g ai/ha] | pest or weed control at 140 g/ha [5, 11] [%] | GR80 Value HELAN [5] [g ai/ha] | pest or weed control at 140 g/ha [6, 12] [%] | GR80 Value VIOTR [6] [g ai/ha] | plant injury at 140 g/ha (Oryza sativa L. (rice)) [%] | plant injury at 140 g/ha (Zea mays L. (corn)) [%] | further results |
| --- | --- | --- | --- | --- | --- | --- | --- | --- | --- | --- | --- | --- | --- | --- | --- |
| Nc1c(Cl)c(C(=O)O)nc(C(F)F)c1Cl [Compound F13, 4-Amino-3,5-dichloro-6-(difluoromethyl)picolinic acid] | 90 | 27.6 | 90 | 25.1 | 10 | >149 | 100 | 21.7 | 85 | 85.8 | 0 | >140 | 0 | 5 | pest or weed control at 35 g/ha ([1]; Amaranthus retroflexus, 336 h, 35 g ai/ha, foliar post-emergent, scored after 14 days, read-out: % Visual Growth Reduction AMARE): 90%; pest or weed control at 35 g/ha ([2]; Chenopodium album, 336 h, 35 g ai/ha, foliar post-emergent, scored after 14 days, read-out: % Visual Growth Reduction CHEAL): 90%; pest or weed control at 70 g/ha ([2]; Chenopodium album, 336 h, 70 g ai/ha, foliar post-emergent, scored after 14 days, read-out: % Visual Growth Reduction CHEAL): 90%; pest or weed control at 35 g/ha ([3]; Echinochloa crus-galli, 336 h, 35 g ai/ha, foliar post-emergent, scored after 14 days, read-out: % Visual Growth Reduction ECHCG): 0%; pest or weed control at 70 g/ha ([3]; Echinochloa crus-galli, 336 h, 70 g ai/ha, foliar post-emergent, scored after 14 days, read-out: % Visual Growth Reduction ECHCG): 0%; pest or weed control at 35 g/ha ([4]; Euphorbia heterophylla, 336 h, 35 g ai/ha, foliar post-emergent, scored after 14 days, read-out: % Visual Growth Reduction EPHHL): 100%; pest or weed control at 70 g/ha ([4]; Euphorbia heterophylla, 336 h, 70 g ai/ha, foliar post-emergent, scored after 14 days, read-out: % Visual Growth Reduction EPHHL): 100%; pest or weed control at 35 g/ha ([5]; Helianthus annuus, 336 h, 35 g ai/ha, foliar post-emergent, scored after 14 days, read-out: % Visual Growth Reduction HELAN): 60%; pest or weed control at 70 g/ha ([5]; Helianthus annuus, 336 h, 70 g ai/ha, foliar post-emergent, scored after 14 days, read-out: % Visual Growth Reduction HELAN): 75%; pest or weed control at 35 g/ha ([6]; Viola tricolor, 336 h, 35 g ai/ha, foliar post-emergent, scored after 14 days, read-out: % Visual Growth Reduction VIOTR): 0%; pest or weed control at 70 g/ha ([6]; Viola tricolor, 336 h, 70 g ai/ha, foliar post-emergent, scored after 14 days, read-out: % Visual Growth Reduction VIOTR): 0%; plant injury at 35 g/ha (Oryza sativa L. (rice); 35 g ai/ha): 0%; plant injury at 70 g/ha (Oryza sativa L. (rice); 70 g ai/ha): 0%; plant injury at 35 g/ha (Zea mays L. (corn); 35 g ai/ha): 0%; plant injury at 70 g/ha (Zea mays L. (corn); 70 g ai/ha): 0% |
| COC(=O)c1nc(CC(F)F)c(F)c(N)c1Cl [Compound F2, methyl 4-amino-3-chloro-6-(2,2-difluoroethyl)-5-fluoropicolinate] | 100 | 103 | 90 | 103 | 0 | >140 | 100 | 114 | 80 | 80.8 | 0 | >140 | 0 | 0 | – |
| COC(=O)c1nc(C(C)(F)CF)cc(N)c1Cl (stereo not drawn) [Compound F11, Methyl 4-amino-3-chloro-6-(1,2-difluoropropan-2-yl)picolinate] | 30 | – | 0 | – | 0 | – | 10 | – | 70 | – | 0 | – | 0 | 0 | – |
